Measurements: US9376391B2, “Difluoromethyl-nicotinic-tetrahydronaphthyl carboxamides as fungicides” (BAYER CROPSCIENCE AKTIENGESELLSCHAFT, priority 2012, dated 2016)

Columns and labels:
[1] = log P by HPLC on reversed phase columns (EEC directive 79/831 Annex V.A8); format: physicochemical; details: Table 1, formula (I); HPLC/LC-MS at pH 2.7, 0.1% formic acid in water / acetonitrile, gradient 10% to 95%
[2] = tested on: Alternaria brassicae; test: In vivo preventive test on Alternaria brassicae (leaf spot on radish); details: spray, graded 6 days after contamination vs control plants
Procedure: In Vivo Preventive Test on Alternaria brassicae (Leaf Spot on Radish)
(§1) The active ingredients tested are prepared by homogenization in a mixture of acetone/tween/DMSO, and then diluted with water to obtain the desired active material concentration.
Radish plants (“Pernod Clair” variety), sown in starter cups on a 50/50 peat soil-pozzolana substrate and grown at 17° C., are treated at the cotyledon stage by spraying with the active ingredient prepared as described above. Plants, used as controls, are treated with the mixture of acetone/tween/DMSO/water not containing the active material.
After 24 hours, the plants are contaminated by spraying the cotyledons with an aqueous suspension of Alternaria brassicae spores (50 000 spores per ml). The spores are collected from a 15-day-old culture. The contaminated radish plants are incubated at 20° C. and at 100% relative humidity.
Grading (% of efficacy) is carried out 6 days after the contamination, in comparison with the control plants.

[3] = tested on: Pyrenophora teres; test: In vivo preventive test on Pyrenophora teres (net blotch on barley); details: for Eff. %: barley, spray, graded 14 days after contamination vs control plants
Procedure: In Vivo Preventive Test on Pyrenophora teres (Net Blotch on Barley)
as §1
Barley plants (“Plaisant” variety), sown in starter cups on a 50/50 peat soil-pozzolana substrate and grown at 22° C., are treated at the 1-leaf stage (10 cm height) by spraying with the active ingredient prepared as described above. Plants, used as controls, are treated with the mixture of acetone/tween/DMSO/water not containing the active material.
After 24 hours, the plants are contaminated by spraying the leaves with an aqueous suspension of Pyrenophora teres spores (12 000 spores per ml). The spores are collected from a 12-day-old culture. The contaminated barley plants are incubated for 48 hours at 20° C. and at 100% relative humidity, and then for 12 days at 20° C. at 70-80% relative humidity.
Grading (% of efficacy) is carried out 14 days after the contamination, in comparison with the control plants. plants.

[4] = tested on: Puccinia recondita; test: In vivo preventive test on Puccinia recondita (brown rust on wheat); details: for Eff. %: wheat, spray, graded 12 days after contamination vs control plants
Procedure: In Vivo Preventive Test on Puccinia recondita (Brown Rust on Wheat) […] Wheat plants (“Scipion” variety), sown in starter cups on a 50/50 peat soil-pozzolana substrate and grown at 22° C., are treated at the 1-leaf stage (10 cm height) by spraying with the active ingredient prepared as described above. Plants, used as controls, are treated with the mixture of acetone/tween/DMSO/water not containing the active material. After 24 hours, the plants are contaminated by spraying the leaves with an aqueous suspension of Puccinia recondita spores (100 000 spores per ml). The spores are collected from an infected plant and are suspended in water containing 2.5 ml/1 of Tween 80 at 10%. The contaminated wheat plants are incubated for 24 hours at 20° C. and at 100% relative humidity, and then for 10 days at 20° C. and at 70-80% relative humidity. Grading (% of efficacy) is carried out 12 days after the contamination, in comparison with the control plants.

[5] = tested on: Septoria tritici; test: In vivo preventive test on Septoria tritici (leaf spot on wheat); details: preventive spray, wheat plants, grading 24 days after contamination
Procedure: In Vivo Preventive Test on Septoria tritici (Leaf Spot on Wheat)
as §1
Wheat plants (“Scipion” variety), sown in starter cups on a 50/50 peat soil-pozzolana substrate and grown at 22° C., are treated at the 1-leaf stage (10 cm height) by spraying with the active ingredient prepared as described above. Plants, used as controls, are treated with the mixture of acetone/tween/DMSO/water not containing the active material.
After 24 hours, the plants are contaminated by spraying the leaves with an aqueous suspension of cryopreserved Septoria tritici spores (500 000 spores per ml). The contaminated wheat plants are incubated for 72 hours at 18° C. and at 100% relative humidity, and then for 21 days at 90% relative humidity.
Grading (% of efficacy) is carried out 24 days after the contamination, in comparison with the control plants.

[6] = tested on: Uromyces appendiculatus; test: In vivo preventive test on Uromyces appendiculatus (bean rust); details: preventive spray, bean plants, grading 11 days after contamination
Procedure: In Vivo Preventive Test on Uromyces appendiculatus (Bean Rust) […] Bean plants (“Saxa” variety), sown in starter cups on a 50/50 peat soil-pozzolana substrate and grown at 24° C., are treated at the 2-leaf stage (9 cm height) by spraying with the active ingredient prepared as described above. Plants, used as controls, are treated with the mixture of acetone/tween/DMSO/water not containing the active material. After 24 hours, the plants are contaminated by spraying the leaves with an aqueous suspension of Uromyces appendiculatus spores (150 000 spores per ml). The spores are collected from infected plants and are suspended in water containing 2.5 ml/1 of Tween 80 at 10%. The contaminated bean plants are incubated for 24 hours at 20° C. and at 100% relative humidity, and then for 10 days at 20° C. and at 70-80% relative humidity. Grading (% of efficacy) is carried out 11 days after the contamination, in comparison with the control plants.

[7] = tested on: Botrytis cinerea; test: In vivo preventive test on Botrytis cinerea (grey mould), gherkin plants; details: for Eff. %: gherkin, spray, graded 4 to 5 days after contamination vs control plants
Procedure: In Vivo Preventive Test on Botrytis cinerea (Grey Mould)
(§2) The active ingredients tested are prepared by homogenization in a mixture of acetone/tween/DMSO and then diluted with water to obtain the desired active material concentration.
(§3) Gherkin plants (“Vert petit de Paris” variety), sown in starter cups on a 50/50 peat soil-pozzolana substrate and grown at 24° C., are treated at the Z11 cotyledon stage by spraying with the active ingredient prepared as described above. Plants, used as controls, are treated with the mixture of acetone/tween/DMSO/water not containing the active material.
After 24 hours, the plants are contaminated by spraying the cotyledons with an aqueous suspension of cryopreserved Botrytis cinerea spores (50 000 spores per ml). The spores are suspended in a nutrient solution composed of 10 g/L of PDB, 50 g/L of D-Fructose, 2 g/L of NH4NO3 and 1 g/L of KH2PO4. The contaminated gherkin plants are incubated at 17° C. and at 90% relative humidity.
Grading (% of efficacy) is carried out 4 to 5 days after the contamination, in comparison with the control plants.

[8] = tested on: Sphaerotheca fuliginea; test: In vivo preventive test on Sphaerotheca fuliginea (powdery mildew on cucurbits); details: for Eff. %: preventive spray
Procedure: In Vivo Preventive Test on Sphaerotheca fuliginea (Powdery Mildew on Cucurbits)
as §2, §3
After 24 hours, the plants are contaminated by spraying the cotyledons with an aqueous suspension of Sphaerotheca fuliginea spores (100 000 spores per ml). The spores are collected from infected plants. The contaminated gherkin plants are incubated at about 20° C. and at 70-80% relative humidity.
Grading (% of efficacy) is carried out 12 days after the contamination, in comparison with the control plants.

[9] = 500 ppm, gherkin plants, grading 12 days after contamination
[10] = 100 ppm, gherkin plants, grading 12 days after contamination
[11] = dose 100 ppm of active ingredient, comparison with known compounds
[12] = dose 100 ppm, comparison with known compounds, same conditions

SMILES | logP^[a] [1] | Eff. % ([2]; dose 500 ppm) [%] | Eff. % ([3]; dose 500 ppm) [%] | Eff. % ([4]; dose 500 ppm) [%] | Eff. % ([5]; 500 ppm) [%] | Eff. % ([6]; 500 ppm) [%] | Eff. % [8, 9] [%] | Eff. % ([4]; dose 100 ppm) [%] | Eff. % [8, 10] [%] | Eff. % ([6]; 100 ppm) [%] | further results
CC1CCc2cccc(NC(=O)c3cccnc3C(F)F)c21 (racemic) [Example 4] | 2.63^[a] | 71 | 75 | 97 | 100 | 100 |  |  |  |  | 
CC1OC(C)(C)c2cccc(NC(=O)c3cccnc3C(F)F)c21 (racemic) [Example 12] | 2.11^[a] |  | 86 | 100 | 96 | 100 |  |  |  |  | Eff. % ([7]; dose 500 ppm): 100%
CC(C)(C)C1CCc2c(NC(=O)c3cccnc3C(F)F)cccc21 (racemic) [Example 39] | 3.78^[a] |  | 83 | 98 | 86 | 100 | 94 |  |  |  | 
CC1CC2(CC2)c2cccc(NC(=O)c3cccnc3C(F)F)c21 (racemic) [Example 42] | 3.00^[a] | 83 |  | 100 | 79 | 100 | 89 |  |  |  | Eff. % ([7]; dose 500 ppm): 99%
CCCCON=C1CC(C)c2c(NC(=O)c3cccnc3C(F)F)cccc21 (racemic) [Example 51] | 3.18^[a] | 93 | 83 | 75 |  | 70 |  |  |  |  | 
CCON=C1CC(C)c2c(NC(=O)c3cccnc3C(F)F)cccc21 (racemic) [Example 52] | 2.71^[a] | 86 | 75 |  | 86 | 93 |  |  |  |  | 
CCC1(CC)OC(C(C)C)c2c(NC(=O)c3cccnc3C(F)F)cccc21 (racemic) [Example 56] | 3.64^[a] | 93 | 92 | 88 | 93 | 100 | 98 |  |  |  | 
CC1CC(C)(C)c2cccc(NC(=O)c3ccccc3C(F)F)c21 (stereo not drawn) [2-(difluoromethyl)-N-(1,1,3-trimethyl-2,3-dihydro-1H-inden-4-yl)benzamide, reference compound] |  |  |  |  |  |  |  |  |  |  | protection (in words) [7, 11]: no protection at all; Efficacy [7, 12]: 0%; protection (in words) [3, 11]: lower protection; Efficacy [3, 12]: 0%; protection (in words) [4, 11]: low protection; Efficacy [4, 12]: 83%; protection (in words) [8, 11]: lower protection; Efficacy ([8]; dose 100 ppm, comparison with prior-art compounds, gherkin plants, grading 12 days after contamination): 0%
CC1CC(C)(C)c2c(F)ccc(NC(=O)c3cccnc3C(F)F)c21 (stereo not drawn) [Example 2] | 3.35^[a] | 98 |  | 100 | 100 | 100 | 100 |  |  |  | Eff. % ([7]; dose 500 ppm): 97%
CC(C)C1c2cccc(NC(=O)c3cccnc3C(F)F)c2CC1C (stereo not drawn) [Example 27] | 3.78^[a] |  | 83 | 100 | 86 | 100 | 100 |  |  |  | Eff. % ([7]; dose 500 ppm): 100%
CC1c2c(NC(=O)c3cccnc3C(F)F)cccc2C(C)(C)C1C (stereo not drawn) [Example 33] | 3.48^[a] | 100 |  | 100 | 100 | 100 | 100 |  |  |  | Eff. % ([7]; dose 500 ppm): 97%
CC1Cc2c(NC(=O)c3cccnc3C(F)F)cccc2C1C (stereo not drawn) [Example 36] | 3.06^[a] |  | 75 | 98 |  | 100 |  |  |  |  | 

More lines, main results first:

logP^[a] [1] | SMILES | Eff. % ([2]; dose 500 ppm) [%] | Eff. % ([3]; dose 500 ppm) [%] | Eff. % ([4]; dose 500 ppm) [%] | Eff. % ([5]; 500 ppm) [%] | Eff. % ([6]; 500 ppm) [%] | Eff. % [8, 9] [%] | Eff. % ([4]; dose 100 ppm) [%] | Eff. % [8, 10] [%] | Eff. % ([6]; 100 ppm) [%] | further results
2.73^[a] | CC(C)C1OC(C)(C)c2cccc(NC(=O)c3cccnc3C(F)F)c21 (racemic) [Example 76] |  |  |  |  |  |  | 94 | 98 | 96 | Eff. % ([2]; dose 100 ppm): 75%; Eff. % ([7]; dose 100 ppm): 98%; Eff. % ([3]; dose 100 ppm): 92%; Eff. % ([5]; 100 ppm): 97%
4.01^[a] | CCC1(CC)CC(C)c2c(NC(=O)c3cccnc3C(F)F)cccc21 (racemic) [Example 78] |  |  |  |  |  |  | 100 | 98 | 100 | Eff. % ([2]; dose 100 ppm): 80%; Eff. % ([7]; dose 100 ppm): 98%
4.46^[a] | CC(C)C1Cc2c(NC(=S)c3cccnc3C(F)F)cccc2C1(C)C (stereo not drawn) [Example 65] |  |  |  |  |  |  | 98 | 98 | 100 | Eff. % ([7]; dose 100 ppm): 100%; Eff. % ([3]; dose 100 ppm): 70%; Eff. % ([5]; 100 ppm): 80%
4.16^[a] | CCC1Cc2c(NC(=S)c3cccnc3C(F)F)cccc2C1(C)C (stereo not drawn) [Example 69] |  |  |  |  |  |  | 100 | 100 | 100 | Eff. % ([3]; dose 100 ppm): 70%; Eff. % ([5]; 100 ppm): 80%
3.62^[a] | CC(C)CC1CCc2cccc(NC(=O)c3cccnc3C(F)F)c21 (stereo not drawn) [Example 84] |  |  |  |  |  |  | 97 | 100 | 100 | Eff. % ([7]; dose 100 ppm): 99%; Eff. % ([3]; dose 100 ppm): 75%; Eff. % ([5]; 100 ppm): 100%
3.92^[a] | CC(C)(C)CC1CCc2cccc(NC(=O)c3cccnc3C(F)F)c21 (stereo not drawn) [Example 90] |  |  |  |  |  |  | 98 | 100 | 100 | Eff. % ([2]; dose 100 ppm): 93%; Eff. % ([7]; dose 100 ppm): 80%; Eff. % ([3]; dose 100 ppm): 86%; Eff. % ([5]; 100 ppm): 96%
